Source: publication PMC9774438, “Effects of Synthetic Short Cationic Antimicrobial Peptides on the Catalytic Activity of Myeloperoxidase, Reducing Its Oxidative Capacity” (Antioxidants, 2022)
Several values for one entry are separate records, joined by “and”; a condition that tells them apart may be missing. Equal entries are not always repeated. Where two headings read alike, the source gives them in different places. Where a SMILES comes first, the peptide text is derived from it.

What was measured:
myeloperoxidase (MPO) [1] = target: T1, myeloperoxidase (MPO) (Homo sapiens, UniProt P05164); experiment: MPO peroxidase activity (Amplex Red assay); format: biochemical; details: for IC50: 50 μM Amplex Red, 25 μM H2O2, 50 mM K-phosphate pH 7.4, 5 min preincubation; for Ki: 20 μM pept_1545 or 2 μM Hm-AMP8, 50 mM K-phosphate pH 7.4, Hanes–Woolf
T1 construct: Native myeloperoxidase (MPO) was obtained from human leukocyte extract by successive chromatography on heparin-Sepharose and phenyl-agarose; from tissue; host or cells: human leukocyte extract
T1 sequence (P05164 279-745 limits assumed): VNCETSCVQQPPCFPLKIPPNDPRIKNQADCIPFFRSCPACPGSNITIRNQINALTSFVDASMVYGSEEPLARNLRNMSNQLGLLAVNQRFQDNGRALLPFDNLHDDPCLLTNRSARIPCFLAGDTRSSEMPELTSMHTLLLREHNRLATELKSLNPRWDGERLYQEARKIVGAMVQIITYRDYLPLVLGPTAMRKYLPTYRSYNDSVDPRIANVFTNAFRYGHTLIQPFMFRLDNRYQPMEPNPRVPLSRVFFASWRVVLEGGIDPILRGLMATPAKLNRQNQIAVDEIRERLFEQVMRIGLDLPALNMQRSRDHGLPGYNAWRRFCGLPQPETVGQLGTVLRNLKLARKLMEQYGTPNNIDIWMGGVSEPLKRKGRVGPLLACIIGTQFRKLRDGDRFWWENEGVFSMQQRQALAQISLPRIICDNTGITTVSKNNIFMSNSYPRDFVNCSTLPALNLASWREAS
T1 sequence (P05164 165-273 limits assumed): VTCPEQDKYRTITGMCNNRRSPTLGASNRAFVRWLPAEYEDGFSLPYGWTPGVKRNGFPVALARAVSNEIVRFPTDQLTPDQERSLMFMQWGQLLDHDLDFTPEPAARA
Description: MPO peroxidase activity was evaluated fluorometrically using Amplex Red^TM reagent which was oxidized by MPO to the fluorescent resorufin (λex = 530 nm, λem = 590 nm). The assay was performed in 96-plate format. The final reaction mixture in 50 mM K-phosphate buffer (pH 7.4) was as follows: MPO, 8 nM heme; peptide, […]; H2O2, 25 μM; Amplex Red reagent, 50 μM. MPO was preincubated with peptides for 5 min in a volume of 100 μl. Then, Amplex Red was added, and the enzymatic reaction was initiated by adding H2O2 (a final probe volume of 200 μL per well). The fluorescence measurement was made with a CLARIOstar multimodal plate reader (BMG Labtech, Ortenberg, Germany) at 5 min after the beginning of the reaction. To determine the type of CAMP-induced inhibition, KM and Vmax were obtained by varying substrates of MPO: Amplex Red in a final concentration from 1 to 62.5 μM, or H2O2 in a final concentration from 0.625 to 20 μM.
(§1) The Hannes-Wolf plots were made as ([Substrate]/V = f([Substrate]). KM was equal in magnitude to the intercept made on the abscissa axis by the approximating straight line; Vmax was calculated as a reciprocal value of the straight-line slope. The inhibition constant (Ki) for noncompetitive inhibition was calculated as follows: Ki = [I]/((Vmax − Vmax’)/Vmax’); Ki for competitive inhibition was calculated as follows: Ki = [I]/((KM’ − KM)/KM); Ki for mixed inhibition was calculated as follows: Ki = [I]/(((KM’ − KM)/KM)^2 + ((Vmax − Vmax’)/Vmax’))^2)^0.5; and Ki for uncompetitive inhibition was calculated as follows: Ki = [I]/(((KM − KM’)/KM’)^2 + ((Vmax – Vmax’)/Vmax’))^2)^0.5, where [I]—concentration of inhibitor (CAMP), KM—Michaelis constant without inhibitor, Vmax—maximal rate without inhibitor, KM’—Michaelis constant in the presence of inhibitor, Vmax’—maximal rate in the presence of inhibitor.
From the experiments with varying concentrations of H2O2 (0.01–200 μM) and Amplex Red (6.25–100 μM), the optimal concentrations of 25 μM H2O2 and 50 μM Amplex Red were chosen for further work. The 0.8–50 μM concentration range (corresponding to 100–6250 peptide molecules per heme) was used to determine the concentration dependence of the effect of CAMPs on peroxidase activity of MPO.

myeloperoxidase (MPO) [2] = target: T1, myeloperoxidase (MPO); experiment: MPO chlorinating activity (Celestine Blue B assay); format: biochemical; details: for IC50: 0.8 nM MPO heme, 200 μM CB, 150 mM NaCl, 50 μM H2O2, 50 mM Na-acetate pH 5.5, 5 min preincubation
Description: MPO chlorinating activity was evaluated fluorometrically using Celestine Blue B (CB) which was oxidized to fluorescent glycol (λex = 487 nm, λem = 578 nm) by taurine N-chloramine produced in the reaction of taurine with HOCl generated by MPO [39]. The assay was performed in 96-plate format. MPO was preincubated with peptides for 5 min in a volume of 100 μL, with the concentrations being: MPO, 1.6 nM heme and peptide, 16 nM–16 μM. Then, 100 μL aliquots of CB-containing mix (CB, 400 µM; H2O2, 100 µM; taurine, 4 mM; KI, 10 µM; NaCl, 300 mM; 50 mM Na-acetate buffer, pH 5.5) were added to MPO/peptide and to 100 μL of HOCl standards (0–150 μM). The fluorescence measurement was made with a CLARIOstar multimodal plate reader (BMG Labtech, Ortenberg, Germany) at 15 min after the reaction started. Fluorescence intensity detected for HOCl standards of HOCl was used for calculating the chlorinating activity as mole of HOCl per mole of MPO heme per second. To determine the type of CAMP-induced inhibition, KM and Vmax were obtained by varying substrates of MPO: NaCl in a final concentration from 25 to 300 mM, or H2O2 in a final concentration from 5 to 80 µM.
as §1
Chlorinating activity is a distinctive feature of MPO as compared with other peroxidases and it is an important property, enabling MPO to combat microbes. We tested whether the inhibitory effects of pept_1545 and Hm-AMP8 on peroxidase activity extend to MPO chlorinating activity. Chlorinating activity was measured using a fluorometric CB-based assay. To determine the concentration dependence of the effect of CAMPs on MPO chlorinating activity, the 0.008–8 μM concentration range (corresponding to 10–10,000 peptide molecules per heme) was used.

myeloperoxidase (MPO) [3] = target: T1, myeloperoxidase (MPO); experiment: Measurement of sulfhydryl groups with MPO/H2O2 (DTNB); format: biochemical; details: for free sulfhydryl groups, percentage relative to CAMP + MPO without H2O2: 150 μM peptide, 1 μM MPO heme, 100 μM H2O2, 10 mM Na-phosphate pH 7.4, mean ± SD, * p < 0.05 where marked
Description: The peroxidase reaction was carried out in 10 mM Na-phosphate buffer, pH 7.4 (containing 0.2 mM DTPA), in a volume of 60 μl placed in the wells of a 96-well plate. Peptides were added to MPO (1 μM heme) to a concentration of 150 μM. Following 5 min of incubation, H2O2 (100 μM, final) was added to test samples to trigger the reaction. Control samples were the same except H2O2. The content of free sulfhydryl groups was estimated spectrophotometrically by using 5,5′-dithiobis(2-nitrobenzoic acid) (DTNB, Ellman’s reagent) prepared in 0.4 M Tris-HCl buffer, pH 9.0. At a desired time after the reaction was started, 120 μL aliquots of freshly prepared DTNB-containing buffer were added to one part of samples (160 μM DTNB, final) and […] of the buffer without DTNB was added to another part of the same samples. […] Absorbance in the absence of DTNB was subtracted from that in the presence of DTNB. The loss of sulfhydryl groups was expressed as a percentage relative to controls incubated without H2O2.
To determine an estimation of whether the cysteine residue of pept_1545 and Hm-AMP8 participated in MPO-mediated reactions, we compared the content of free sulfhydryl groups in the reaction mixtures of peptides (150 μM) with the MPO/H2O2 system (1 μM heme, 100 μM H2O2) and control samples containing peptides plus MPO with no added H2O2. Measurements of sulfhydryl groups were made at 5 min and 90 min of incubation (Table 2).

MPO [4] = details: cited from earlier work; for peroxidase substrate behaviour of free amino acid: literature statement
Source text: Free tyrosine is known to be a peroxidase substrate, reacting rapidly with both Compounds I and II. […] MPO-catalyzed oxidation of tyrosine occurs in the absence as well as presence of chloride, which is accompanied by hastened HOCl production. […] In addition to cysteine, pept_1545 contains tryptophan, another redox active amino acid. […] Fluorescence measurements (λex = 290 nm, λem = 310–450 nm) were ...

MPO [5] = details: MPO/H2O2 system; ref [57]; cited from earlier work
[6] = 0.625–20 μM H2O2, 50 μM Amplex Red, 8 nM MPO heme, read-out: Inhibition constant (Ki) towards H2O2, peroxidase activity
[7] = 1–62.5 μM Amplex Red, 25 μM H2O2, 8 nM MPO heme, read-out: Inhibition constant (Ki) towards Amplex Red
[8] = 8 μM pept_1545 or 0.8 μM Hm-AMP8, 25–300 mM NaCl, 50 μM H2O2, 0.8 nM MPO, 50 mM Na-acetate pH 5.5, Hanes–Woolf, read-out: Inhibition constant (Ki) towards Cl−
[9] = Ki towards H2O2 and Cl– (abstract, range over both substrates), chlorinating activity, pH 5.5

With `CC[C@H](C)[C@H](NC(=O)[C@H](C)NC(=O)[C@H](CC(N)=O)NC(=O)[C@H](Cc1ccc(O)cc1)NC(=O)[C@@H]1CCCN1C(=O)[C@@H](NC(=O)[C@H](CCCCN)NC(=O)[C@H](Cc1ccc(O)cc1)NC(=O)[C@@H](NC(=O)[C@@H](NC(=O)[C@H](C)NC(=O)[C@@H](N)CCCNC(=N)N)C(C)C)[C@@H](C)CC)[C@@H](C)CC)C(=O)N[C@@H](C)C(=O)N[C@@H](CO)C(=O)N[C@@H](CCCNC(=N)N)C(=O)N[C@@H](Cc1c[nH]c2ccccc12)C(=O)N[C@H](C(=O)N[C@H](C(=O)N[C@@H](C)C(=O)N1CCC[C@H]1C(=O)N[C@@H](CCCCN)C(=O)N[C@@H](CCCCN)C(=O)N[C@@H](CS)C(N)=O)[C@@H](C)CC)[C@@H](C)CC` [Hm-AMP8] (H-RAVIYKIPYNAIASRWIIAPKKC-NH2) the IC50 (myeloperoxidase (MPO) [1]; 8 nM MPO heme) was 1700 nM and 2000 nM, the Ki (myeloperoxidase (MPO) [1]; [6]) was 1790 nM and the Ki (myeloperoxidase (MPO) [1]; [7]) was 1100 nM. For the same compound, the IC50 (myeloperoxidase (MPO) [2]) was 300 nM, the Ki (myeloperoxidase (MPO) [2]; 8 μM pept_1545 or 0.8 μM Hm-AMP8, 5–80 μM H2O2, 150 mM NaCl, 0.8 nM MPO, 50 mM Na-acetate pH 5.5, Hanes–Woolf, read-out: Inhibition constant (Ki) towards H2O2, chlorinating activity) was 280 nM and the Ki (myeloperoxidase (MPO) [2]; [8]) was 420 nM. For the same compound, the Ki (myeloperoxidase (MPO) [2]; [9]) was 300 to 400 nM, the “free sulfhydryl groups, percentage relative to CAMP + MPO without H2O2” value (myeloperoxidase (MPO) [3]; 5 min incubation) was 93 ± 5% and the “free sulfhydryl groups, percentage relative to CAMP + MPO without H2O2” value (myeloperoxidase (MPO) [3]; 90 min incubation) was “* 79 ± 6%”.
In the case of `N[C@@H](CS)C(=O)O` [cysteine], the “bimolecular rate constant for reaction with Compound I” value (MPO [4]; free cysteine, ref [50]) is given as 4100 M⁻¹ s⁻¹, the “bimolecular rate constant for reaction with Compound II” value (MPO [4]; free cysteine, ref [50]) is given as < 10 M⁻¹ s⁻¹ and the “peroxidase substrate behaviour of free amino acid” value (MPO [4]) is given as “poor peroxidase substrate”.
Compound `CC[C@H](C)[C@H](NC(=O)[C@H](C)NC(=O)[C@H](CCCCN)NC(=O)CNC(=O)[C@@H](NC(=O)[C@H](CC(C)C)NC(=O)[C@@H](N)Cc1ccccc1)[C@@H](C)CC)C(=O)N[C@@H](CCCCN)C(=O)N[C@@H](CCCNC(=N)N)C(=O)N[C@@H](CCCCN)C(=O)N[C@@H](Cc1ccccc1)C(=O)N[C@@H](CS)C(=O)N[C@@H](CC(C)C)C(=O)N[C@@H](CCCNC(=N)N)C(=O)N[C@@H](CO)C(=O)N[C@H](C(=O)N[C@@H](Cc1c[nH]c2ccccc12)C(=O)N[C@@H](CC(N)=O)C(=O)N[C@@H](C)C(N)=O)C(C)C` [pept_1545] (H-FLIGKAIKRKFCLRSVWNA-NH2) has an IC50 (myeloperoxidase (MPO) [1]; 8 nM MPO heme) of 11200 nM, a Ki (myeloperoxidase (MPO) [1]; [6]) of 52800 nM and a Ki (myeloperoxidase (MPO) [1]; [7]) of 48300 nM. The IC50 (myeloperoxidase (MPO) [2]) was 7400 nM, the Ki (myeloperoxidase (MPO) [2]; [8]) was 19500 nM and the Ki (myeloperoxidase (MPO) [2]; [9]) was 11000 to 20000 nM. The “decrease in amount of –SH groups” value (myeloperoxidase (MPO) [3]; 5 min incubation with MPO/H2O2) was “about 20%”, the “free sulfhydryl groups, percentage relative to CAMP + MPO without H2O2” value (myeloperoxidase (MPO) [3]; 5 min incubation) was “* 80 ± 4%” and the “free sulfhydryl groups, percentage relative to CAMP + MPO without H2O2” value (myeloperoxidase (MPO) [3]; 90 min incubation) was “* 76 ± 5%”.
In the case of `N[C@@H](Cc1c[nH]c2ccccc12)C(=O)O` [tryptophan], the “peroxidase substrate behaviour of free amino acid” value (MPO [4]) is given as “poor peroxidase substrate”.
In the case of `N[C@@H](Cc1ccc(O)cc1)C(=O)O` [tyrosine], the “bimolecular rate constant for reaction with Compound I” value (MPO [4]; free tyrosine, ref [42]) is given as 770000 M⁻¹ s⁻¹, the “bimolecular rate constant for reaction with Compound II” value (MPO [4]; free tyrosine, ref [42]) is given as 16000 M⁻¹ s⁻¹ and the “peroxidase substrate behaviour of free amino acid” value (MPO [4]) is given as “accelerates MPO turnover”.
For “N-acetyl lysyltyrosylcysteine amide [KYC]”, the formation of dityrosine (MPO [5]) is given as “formation of dityrosine only by KYS” and the “oxidation of tyrosine residues by MPO” value (MPO [5]) is given as “MPO oxidized tyrosine residues in both KYC and KYS”.
In the case of N-acetyl lysyltyrosylserine amide [KYS], the formation of dityrosine (MPO [5]) is given as “formation of dityrosine only by KYS” and the “oxidation of tyrosine residues by MPO” value (MPO [5]) is given as “MPO oxidized tyrosine residues in both KYC and KYS”.
